Measured values: patent publication US8329739B2, “Phenylimidazole compounds” (Otsuka Pharmaceutical Factory, Inc., priority 2009, dated 2012)
Counter-ions that a name gives are not always drawn.

What was measured:
LPL (lipoprotein lipase) = biological target: T1, LPL (lipoprotein lipase) (Mus musculus, UniProt P11152); test: Confirmation test of LPL activation effect in mouse skeletal muscle cells (C2C12 cells); format: cell-based; settings: 8 hours exposure, vs control group
T1 construct: endogenous in cells; host or cells: C2C12 cells, differentiated
T1 sequence (P11152 28-474): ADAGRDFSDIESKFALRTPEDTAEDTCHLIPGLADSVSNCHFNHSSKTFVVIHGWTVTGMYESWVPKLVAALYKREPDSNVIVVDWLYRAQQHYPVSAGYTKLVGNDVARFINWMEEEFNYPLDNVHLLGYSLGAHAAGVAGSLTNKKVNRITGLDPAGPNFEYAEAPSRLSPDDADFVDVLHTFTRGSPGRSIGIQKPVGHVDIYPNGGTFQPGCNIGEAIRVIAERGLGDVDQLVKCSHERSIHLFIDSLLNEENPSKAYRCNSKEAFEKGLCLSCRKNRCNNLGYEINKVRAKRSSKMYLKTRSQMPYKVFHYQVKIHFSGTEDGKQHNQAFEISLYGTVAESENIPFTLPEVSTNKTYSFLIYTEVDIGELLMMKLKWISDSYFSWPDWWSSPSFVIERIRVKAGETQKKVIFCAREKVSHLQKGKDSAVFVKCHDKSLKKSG
Experimental: Human skeletal muscle cells (human skeletal muscle myoblasts) or mouse skeletal muscle cells (C2C12 cells) that were seeded onto plates, cultured, and differentiated were exposed to a 0.3% dimethyl sulfoxide-containing culture medium in which the compound of the present invention was dissolved (concentration: 10 μM or 30 μM). The medium was removed 8 hours after exposure, 10 mM of Tris-HCl buffer (150 mM NaCl, 10 μ/mL; containing heparin sodium) was added to the cells, and the cells were incubated at 37° C. in the presence of 5% CO2 for 10 minutes. LPL activity in the supernatant was measured using an LPL activity assay kit (made by Roar Biomedical Inc.). LPL activity was evaluated based on the increase in fluorescence intensity 10 to 70 minutes after mixing the supernatant with the LPL substrate. The mean value of the increase in fluorescence intensity of the cells exposed to a 0.3% dimethyl sulfoxide-containing culture medium […] was used as mean value of the control group. Note that the compounds of Examples 18, 19, 32, 45 and 57 were tested using human skeletal muscle cells, and other compounds were tested using mouse skeletal muscle cells. The rate of increase (%) was calculated from the measured values of LPL activity in the control group and the experimental group, according to the following formula. Rate of increase in LPL activity (%)=[(mean value of the experimental group)−(mean value of the control group)]/(mean value of the control group)×100

SMILES | Rate of increase in LPL activity (LPL (lipoprotein lipase); amount of addition 10 μM) | Rate of increase in LPL activity (LPL (lipoprotein lipase); amount of addition 30 μM) | melting point
COc1cc(OCc2ccc(Br)cc2F)ccc1-c1c[nH]c(-c2ccsc2)n1.Cl [Example 68] | 10% | 289% | 247 to 249 °C
COc1cc(-c2cn(C)c(-c3ccc(C(F)(F)F)cc3)n2)ccc1OCc1ccccc1 [Example 6] | – | – | 138 to 139 °C
COc1cc(-c2c[nH]c(C(C)C)n2)ccc1OCc1ccc(Cl)cc1 [Example 35] | – | – | 126 to 128 °C
COc1cc(OCc2ccc(Cl)cc2F)ccc1-c1c[nH]c(-c2ccc(C)cc2)n1 [Example 136] | – | – | 152 to 155 °C
COc1cc(-c2c[nH]c(-c3ccc(C)c(F)c3)n2)ccc1OCc1ccccc1.Cl [Example 16] | 54% | 119% | 236 to 237 °C
COc1cc(OCc2ccccc2)ccc1-c1c[nH]c(-c2cc(F)cc(F)c2)n1.Cl [Example 121] | 113% | 270% | 247 to 249 °C
COc1cc(OCc2ccc(Cl)cc2)ccc1-c1c[nH]c(-c2ccc(Cl)cc2)n1 [Example 82] | 27% | 86% | 181 to 184 °C
COc1cc(OCc2ccc(C#N)cc2)ccc1-c1c[nH]c(-c2cccc(Cl)c2)n1 [Example 97] | 27% | 63% | 154 to 157 °C
COc1cc(-c2c[nH]c(-c3ccc(F)cc3)n2)ccc1OCc1ccc(Cl)cc1.Cl [Example 48] | 18% | 96% | 243 to 245 °C
COc1cc(OCc2ccc(C#N)cc2)ccc1-c1c[nH]c(-c2ccc(C(F)(F)F)cc2)n1 [Example 17] | 81% | 143% | 182 to 184 °C
COc1cc(OCc2ccc(Br)cc2F)ccc1-c1c[nH]c(-c2ccc(Cl)cc2)n1 [Example 80] | 21% | 302% | 191 to 195 °C
COc1cc(OCc2ccccc2)ccc1-c1c[nH]c(-c2cccs2)n1.Cl | – | – | 139 to 142 °C
COc1cc(OCc2ccc(Br)cc2F)ccc1-c1c[nH]c(-c2ccc(C(C)(C)C)cc2)n1 [Example 90] | 18% | 130% | 177 to 180 °C
COc1cc(OCc2ccc(Br)cc2F)ccc1-c1c[nH]c(-c2cccc(C)c2)n1 [Example 95] | – | – | 120 to 123 °C
COc1cc(OCc2ccc(Cl)cc2F)ccc1-c1c[nH]c(-c2ccc(F)c(F)c2)n1.Cl | – | – | 251 to 255 °C
COc1cc(OCc2ccccc2)ccc1-c1c[nH]c(-c2ccc(C(C)(C)C)cc2)n1 [Example 129] | – | – | 227 to 229 °C
COc1cc(-c2c[nH]c(-c3ccc(C(F)(F)F)cc3)n2)ccc1OCc1ccc(C(F)(F)F)cc1 [Example 165] | 38% | 476% | –
COc1cc(OCc2ccc(C#N)cc2)ccc1-c1c[nH]c(-c2cc(Cl)cc(Cl)c2)n1.Cl | – | – | > 250 °C
COc1cc(OCc2ccc(C#N)cc2)ccc1-c1c[nH]c(-c2cccs2)n1 [Example 21] | – | – | 193 to 196 °C

SMILES | Rate of increase in LPL activity (LPL (lipoprotein lipase); amount of addition 10 μM) | Rate of increase in LPL activity (LPL (lipoprotein lipase); amount of addition 30 μM) | melting point
COc1cc(-c2c[nH]c(-c3ccc(C(F)(F)F)cc3)n2)ccc1OCc1ccc(Br)cc1F [Example 1, 4-[4-(4-bromo-2-fluorobenzyloxy)-3-methoxyphenyl]-2-[4-(trifluoromethyl)phenyl]-1H-imidazole hydrochloride] | 64% | 360% | –
COc1cc(OCc2ccc(Br)cc2F)ccc1-c1c[nH]c(-c2cccc(F)c2)n1.Cl | – | – | 240 to 245 °C
COc1cc(-c2c[nH]c(-c3ccc(F)cc3)n2)ccc1OCc1ccc(C(F)(F)F)cc1 [Example 164] | 4% | 228% | –
COc1cc(OCc2ccc(Cl)cc2F)ccc1-c1c[nH]c(-c2ccc(Cl)c(Cl)c2)n1.Cl | – | – | 254 to 258 °C
COc1cc(OCc2ccccc2)ccc1-c1c[nH]c(-c2cccc(Cl)c2)n1 [Example 122] | – | – | 142 to 145 °C
COc1cc(-c2c[nH]c(-c3ccc(C(F)(F)F)cc3)n2)ccc1O [Example 41] | – | – | 197 to 198 °C
COc1cc(-c2cn(C)c(-c3ccccc3)n2)ccc1OCc1ccccc1 [Example 8] | – | – | 146 to 147 °C
COc1cc(O)ccc1-c1c[nH]c(-c2ccc(C)cc2)n1 [Example 108] | – | – | 260 to 262 °C
COc1cc(O)ccc1-c1c[nH]c(-c2ccc(F)cc2)n1 [Example 107] | – | – | > 250 °C
COc1cccc(-c2nc(-c3ccc(OCc4ccc(Cl)cc4)cc3OC)c[nH]2)c1.Cl | – | – | 256 to 258 °C
COc1cc(OCc2ccc(C(F)(F)F)cc2)ccc1-c1c[nH]c(-c2ccc(C(F)(F)F)cc2)n1 [Example 167] | 37% | 104% | –
COc1cc(-c2cnc(-c3cccs3)[nH]2)ccc1OCc1ccccc1 [Example 14] | – | – | 178 to 181 °C
COc1cc(OCc2ccc(Cl)cc2)ccc1-c1c[nH]c(-c2cccc(C)c2)n1.Cl | – | – | 217 to 220 °C
COc1cc(OCc2ccc(C#N)cc2)ccc1-c1c[nH]c(-c2cccc(F)c2)n1 [Example 60] | – | – | 257 to 260 °C
COc1cc(O)ccc1-c1c[nH]c(-c2ccccc2)n1 [Example 105] | – | – | 232 to 235 °C
COc1cc(OCc2ccc(Cl)cc2)ccc1-c1c[nH]c(-c2ccc(C)cc2)n1.Cl | – | – | 241 to 244 °C
COc1cc(-c2c[nH]c(-c3ccsc3)n2)ccc1OCc1ccccc1 [Example 25] | – | – | 132 to 135 °C
COc1cc(O)ccc1-c1c[nH]c(-c2ccc(C(F)(F)F)cc2)n1 [Example 106] | – | – | > 250 °C
COc1cc(-c2c[nH]c(-c3cccc(F)c3)n2)ccc1OCc1ccc(Br)cc1F.Cl | – | – | 244 to 247 °C

SMILES | Rate of increase in LPL activity (LPL (lipoprotein lipase); amount of addition 10 μM) | Rate of increase in LPL activity (LPL (lipoprotein lipase); amount of addition 30 μM) | melting point
COc1cc(-c2c[nH]c(-c3ccc(F)cc3)n2)ccc1O [Example 44] | – | – | 116 to 123 °C
COc1cc(OCc2ccc(Cl)cc2F)ccc1-c1c[nH]c(-c2cccc(C)c2)n1 [Example 135] | – | – | 115 to 120 °C
COc1cc(-c2c[nH]c(C)n2)ccc1OCc1ccccc1 [Example 40] | – | – | 159 to 163 °C
COc1cc(OCc2ccc(Cl)cc2F)ccc1-c1c[nH]c(-c2ccc(Cl)cc2)n1 [Example 131] | – | – | 191 to 194 °C
COc1cc(-c2nc(-c3ccc(C(F)(F)F)cc3)[nH]c2C)ccc1OCc1ccccc1 [Example 34] | – | – | 160 to 165 °C
COc1ccc(-c2nc(-c3ccc(OCc4ccccc4)c(OC)c3)c[nH]2)cc1 [Example 27] | – | – | 146 to 148 °C
CCOC(=O)c1ccc(-c2nc(-c3ccc(OCc4ccccc4)c(OC)c3)c[nH]2)cc1.Cl | – | – | 211 to 213 °C
COc1cc(OCc2ccccc2)ccc1-c1c[nH]c(-c2cc(Cl)cc(Cl)c2)n1 [Example 125] | – | – | 161 to 163 °C
COc1cc(-c2c[nH]c(-c3ccccc3)n2)ccc1OCc1ccc(C#N)cc1 [Example 63] | – | – | 193 to 196 °C
COc1cc(OCc2ccc(C#N)cc2)ccc1-c1c[nH]c(-c2ccccc2)n1 [Example 12] | – | – | 99 to 103 °C
COc1cc(OCc2ccccc2)ccc1-c1c[nH]c(-c2cccc(C)c2)n1.Cl | – | – | 194 to 196 °C
COc1cc(-c2c[nH]c(-c3cccs3)n2)ccc1OCc1ccc(C#N)cc1 [Example 64] | – | – | 192 to 193 °C
COc1cc(-c2c[nH]c(-c3ccc(C(=O)O)cc3)n2)ccc1OCc1ccccc1.Cl | – | – | 241 to 243 °C
COc1cc(OCc2ccc(Br)cc2F)ccc1-c1c[nH]c(-c2ccc(F)c(F)c2)n1 [Example 89] | – | – | 263 to 265 °C
COc1cc(OCc2ccc(C#N)cc2)ccc1-c1c[nH]c(-c2cccc(C)c2)n1.Cl | – | – | 243 to 246 °C
COc1cc(-c2c[nH]c(C(C)C)n2)ccc1OCc1ccccc1 [Example 29] | – | – | 148 to 152 °C
COc1cc(-c2c[nH]c(-c3ccc(C(F)(F)F)cc3)n2)ccc1OCc1ccc(Br)cc1F (as salt: hydrochloride) [Example 1, 4-[4-(4-bromo-2-fluorobenzyloxy)-3-methoxyphenyl]-2-[4-(trifluoromethyl)phenyl]-1H-imidazole hydrochloride] | – | – | 174 to 175 °C
COc1cc(OCc2ccc(Cl)cc2)ccc1-c1c[nH]c(-c2cccs2)n1 [Example 22] | – | – | 107 to 109 °C
